Test in all cases: NCI-60 cell line screen, 48 h
Assay [1] deals with A498 renal.
Assay [2] concerns HOP-92 NSCLC.
The test system of assay [3] is HT29 colon.
The subject of assay [4] is K-562 leukemia.
For assay [5], the system named is NCI-H522 lung.
For assay [6], the system named is OVCAR-3 ovarian.
Assay [7] deals with SK-MEL-28 melanoma.
Assay [8] deals with TK-10 renal.
The subject of assay [9] is U251 CNS.
Assay [10] relates to RXF 393 renal.

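Assay format: 96-well plates, 48-hour exposure. At the GI50, growth is halved. TGI is the concentration that stops growth completely.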

On to `Cc1oc2c(c1C)S(=O)(=O)C(C#N)=C(N(C)C)N2`, for which the TGI in assay [1], in [2], in assay [3], in [4], in assay [5] and in [6] was above 100 µM throughout. The TGI in assay [7], in assay [8] and in assay [9] was above 100 µM throughout.
On to `O=C(c1ccc(Cl)cc1)N(C(=S)N1CCN(c2ccccn2)CC1)C1CCCCC1`, for which the TGI in assay [2], in assay [3], in assay [4], in [5], in assay [6] and in assay [10] was above 100 µM in each case. Further, the TGI in [7], in [8] and in [9] was above 100 µM in each case.
On to `O=C(Nc1cccc([N+](=O)[O-])c1)c1n[nH]n(-c2cccc([N+](=O)[O-])c2)c1=O`, for which the TGI in [1], in [3], in assay [4], in assay [5], in [10] and in assay [7] was above 100 µM throughout. Moreover, the TGI in [9] was above 100 µM.
Regarding `O=c1oc2ccccc2cc1-c1cn2c(n1)sc1ccccc12`, the TGI was above 100 µM in assay [2]; 11.8 µM in assay [3]; above 100 µM in assay [4]; above 100 µM in assay [5]; above 100 µM in [6]; above 100 µM in assay [10]. Besides, the TGI in assay [7], in assay [8] and in assay [9] was above 100 µM throughout.
As to `Cn1c(CO)ccc1-c1ccc(-c2ccc[se]2)[se]1`, the TGI in assay [1] was 0.187 µM; in assay [3], above 100 µM; in [4] it was above 43.3 µM; in [5], above 100 µM; in assay [10], 26.4 µM; in assay [7] it was above 100 µM.
For `NC1=NS(=O)(=O)Nc2nc(-c3ccccc3)[nH]c21`, the TGI in assay [2], in assay [3], in assay [4], in [5], in assay [6] and in [10] was above 100 µM each time. The TGI in assay [7], in assay [8] and in [9] was above 100 µM in each case.
In the case of `O=C(O)c1cnc(-n2[nH]c3c(c2=O)CCCC3)[nH]c1=O`, the TGI in [1], in [2], in assay [3], in assay [4], in [5] and in assay [7] was above 100 µM in each case. Moreover, the TGI in assay [8] and in [9] was above 100 µM each time.
As for `C=C1CC(Cn2ccc(=O)[nH]c2=O)(c2ccc(Cl)cc2)OC1=O` (centres undefined), the TGI in assay [1] came out at 32.4 µM; in assay [2], 3.89 µM; in [3], 13.4 µM; in [4], 5.38 µM; in assay [5] it was 2.26 µM; in [6], 21.8 µM. Also, the TGI in assay [7] was 13.7 µM; in [8] it was 4.72 µM; in [9], 31.7 µM.
For the compound `C=C(C)COC1CCCCO1` (centres undefined), the TGI in [1], in [3], in [4], in assay [5], in [6] and in assay [7] was above 100 µM each time. For the same compound, the TGI in assay [8] and in assay [9] was above 100 µM each time.
With `COc1cc(OC)c2c3c(OC)cc(OC)c4c(=O)c(O)c(C[C@@H](C)O)c(c5c(C[C@@H](C)O)c(O)c(=O)c1c25)c43`, the TGI worked out at 71.8 µM in assay [1]; 35.4 µM in assay [2]; 73 µM in assay [3]; 9.4 µM in [6]; 73.1 µM in assay [10]; 42 µM in assay [7]. Besides, the TGI in assay [8] was above 100 µM; in [9], 67.9 µM.
On to `CC(=O)Oc1c2c(c3n(c1=O)CCCC3)C(=O)N(c1ccccc1)C2=O`, for which the TGI in assay [2], in assay [3], in assay [4], in assay [5], in assay [6] and in [10] was above 100 µM in each case. Also, the TGI in [7], in assay [8] and in assay [9] was above 100 µM throughout.
As for `O=c1ccn(C2OC(CO)C(O)C2F)c(=O)n1Cc1ccccc1` (centres undefined), the TGI in assay [3], in [4], in assay [5], in assay [6], in assay [10] and in assay [7] was above 100 µM throughout. Besides, the TGI in assay [8] and in assay [9] was above 100 µM each time.
Turning to `C/C=C1\CN(C(=O)OC(C)(C)C)C1C(=O)OC(C)(C)C` (centres undefined), the TGI in assay [1], in [2], in assay [3], in [4], in assay [6] and in assay [7] was above 100 µM each time. This compound also registered a TGI in [8] above 100 µM.
Regarding `CC1(C)CCC(C)(C)C1C(=O)NC(O)C(=O)O` (centres undefined), the TGI in assay [1], in [4], in assay [7], in [8] and in assay [9] was above 100 µM in each case.
For the compound `COc1c2c(c3ccccc3c1O)C1C=CC2C1` (centres undefined), the TGI came to 39.2 µM in [3]; 29.3 µM in assay [5]; 27.6 µM in assay [6]; 28.9 µM in assay [10]; 37.9 µM in assay [7]; 36.8 µM in [8]. This compound also showed a TGI in assay [9] of 23.9 µM.
For `CC1CC/C(=C\c2ccc(F)cc2)C(=O)/C1=C/c1ccc(F)cc1` (centres undefined), the TGI in assay [1] was 25.3 µM; in [3], 12.1 µM; in [4], above 100 µM; in [6] it was 28.1 µM; in [10], 9.98 µM; in [7], 37 µM. The TGI worked out at 8.64 µM in assay [8] and 22.7 µM in assay [9].
Consider `Cc1ccc(C2=C(C#N)C(N)OC3=C2COc2ccccc23)cc1` (centres undefined), for which the TGI in assay [1] was 50.2 µM; in [2], above 100 µM; in [3] it was above 100 µM; in [4], above 100 µM; in assay [6] it was 41.9 µM; in assay [7] it was above 100 µM. Besides, the TGI in assay [8] worked out at 44.4 µM; in assay [9], 51 µM.
`Cc1ccc(C(=O)Nc2ccc(CP(=O)(O)O)cc2CP(=O)(O)O)cc1NC(=O)Nc1cc(C(=O)Nc2ccc(CP(=O)(O)O)cc2CP(=O)(O)O)ccc1C`: the TGI in assay [1], in assay [3], in assay [4], in assay [5], in assay [6] and in assay [10] was above 100 µM in each case. Moreover, the TGI in [7], in [8] and in [9] was above 100 µM throughout.
Turning to `Cc1ccc(-c2nc(N/N=C/c3ccc(O)cc3)c3ccccc3n2)cc1`, the TGI was above 100 µM in assay [2]; above 100 µM in assay [3]; above 100 µM in assay [4]; 30.1 µM in assay [5]; above 100 µM in [6]; 76 µM in assay [10]. The figures for the TGI in [7], in [8] and in assay [9] were 81.5 µM, 68.5 µM and 65.7 µM, respectively.
Regarding `Cc1n[nH]c(=O)n1/N=C\c1ccccc1`, the TGI in [1] is above 100 µM; in [3], above 100 µM; in assay [4], above 100 µM; in assay [5], above 100 µM; in [6], above 100 µM; in [10] it was 50.9 µM. Also, the TGI in assay [7], in [8] and in [9] was above 100 µM throughout.
Turning to `O=C(N=c1ccc2nc(=O)[nH]n(O)c-2c1)C(F)(F)F`, the TGI in [1], in assay [3], in [4], in assay [5], in assay [6] and in assay [7] was above 100 µM throughout. Besides, the TGI in [8] and in [9] was above 100 µM each time.
For `Clc1ccc(-c2cn3c(nc4ccccc43)c(/C=C/c3ccco3)n2)cc1`, the TGI in assay [1] is 96.3 µM; in [2], 50.4 µM; in assay [3], above 100 µM; in [4], above 100 µM; in [6], above 100 µM; in assay [10] it was above 100 µM. For the same compound, the results for the TGI in assay [7], in [8] and in [9] were above 100 µM, 82 µM and above 100 µM, respectively.
As for `COc1cc2c(c(O)c1OC)CC1CCC(=O)N1C2c1cccc2ccccc12` (centres undefined), the TGI was 68.8 µM in assay [1]; 45.7 µM in assay [2]; 34.5 µM in assay [3]; above 100 µM in assay [4]; 41 µM in assay [5]; 44.6 µM in [6]. In addition, the TGI was 52.2 µM in [7], above 100 µM in assay [8] and 42.9 µM in [9].
Turning to `CC(=O)NC(C)(C)C1CCC(C)=C(c2ccccc2)C1` (centres undefined), the TGI in assay [2] was 68.4 µM; in [3], above 100 µM; in assay [4] it was above 100 µM; in [5], above 100 µM; in assay [6], above 100 µM; in [7] it was above 100 µM. In addition, the TGI in [8] and in [9] was above 100 µM each time.
Consider `S=c1[nH]n2c(CCCCCCCCc3nnc4sc(=S)[nH]n34)nnc2s1`, for which the TGI in assay [1], in assay [2], in assay [3], in assay [4], in assay [5] and in assay [6] was above 100 µM each time. Also, the TGI in assay [7] and in assay [9] was above 100 µM each time.
Regarding `CCOC(=O)C(Cc1ccc(OC(=O)OC(C)(C)C)cc1)NC(=O)OC(C)(C)C` (centres undefined), the TGI in [3], in assay [4], in [5], in assay [6], in [10] and in assay [7] was above 100 µM in each case. Besides, the TGI in assay [8] and in assay [9] was above 100 µM throughout.
With `O=C(c1ccccc1)C1S(=O)(=O)OCCOS1(=O)=O`, the TGI in [2], in [3], in assay [4], in assay [5], in assay [6] and in [7] was above 100 µM each time. The compound also came in with a TGI in [8] above 100 µM.
With `O=C1/C=C(/c2ccc(O)cc2)[C@@H](O)Cc2ccc(O)cc2O1`, the TGI in assay [1] is 86.4 µM; in assay [3], above 100 µM; in assay [5], above 100 µM; in [6] it was above 100 µM; in assay [8], above 100 µM; in assay [9] it was above 100 µM.
Turning to `COc1cc(OC)cc(-c2n/c(=C\c3c(O)[nH]c4ccc(OC)cc34)cc3c2=Nc2ccccc2-3)c1`, the GI50 is 14.8 µM in [1]; 2.06 µM in assay [3]; 2.65 µM in assay [4]; 17.8 µM in assay [5]; 3.45 µM in [6]; 5.65 µM in assay [10]. Also, the GI50 in assay [7] is 13.5 µM; in assay [8] it was 3.82 µM; in [9], 1.93 µM. Besides, the TGI in assay [1] stood at 34 µM; in assay [3], 4.15 µM; in [4], 6.64 µM; in assay [5], 37.2 µM; in assay [6] it was 9.67 µM; in assay [10], 27.2 µM. Further, the TGI stood at 33.4 µM in assay [7], 9.86 µM in assay [8] and 3.84 µM in [9].
Turning to `Cc1sc2c(c1C)/C(=N\O)c1cccn1-2`, the TGI in assay [1] is 75.9 µM; in [3], above 100 µM; in [5], above 100 µM; in [6], above 100 µM; in assay [10], 65.5 µM; in assay [7], above 100 µM. The values for the TGI in [8] and in assay [9] were above 100 µM and 69.7 µM, respectively.
For `COc1ccc2c3c([nH]c2c1)CCN(CCCC(=O)c1ccc(F)cc1)C3`, the TGI in assay [1] turned out to be 29.7 µM; in assay [3], 18.3 µM; in assay [4] it was 44.9 µM; in [5], 42.8 µM; in assay [6] it was 32.9 µM; in [10] it was 28.5 µM. Moreover, the TGI in assay [7] was found to be 29.3 µM; in assay [8], 29.1 µM; in assay [9] it was 32 µM.

The record behind these values is PubChem BioAssay (NCI).
